We go through 19 molecules from ChEMBL document CHEMBL5131542, “Exploring Degradation of Mutant and Wild-Type Epidermal Growth Factor Receptors Induced by Proteolysis-Targeting Chimeras” (J Med Chem, 2022).

SMILES strings stand for the structures. Activity calls are given as the source filed them. The rule behind the calls is not given here.

A word on the GI50: it is the concentration at which growth is held to half of that of the control. One may read the Kd as the equilibrium constant for the complex coming apart.

Test [1] deals with HCC827. The test can be described thus: Antiproliferative activity against human HCC827 cells assessed as cell growth inhibition incubated for 3 days by CCK-8 assay. It counts as functional. The following applies: HCC827, 72 h, time 3 day.
The subject of test [2] is OVCAR-8. In words: Antiproliferative activity against human OVCAR-8 cells expressing wild type EGFR assessed as cell growth inhibition at 1 uM in presence of pictilisib. It counts as functional, cell-based.
Test [3] relates to NCI-H1299. In words: Antiproliferative activity against human NCI-H1299 cells expressing wild type EGFR assessed as cell growth inhibition at 1 uM in presence of pictilisib. It counts as functional, cell-based.
Test [4] deals with von Hippel-Lindau disease tumor suppressor/Epidermal growth factor receptor (Homo sapiens), P00533+P40337 [UNDEFINED MUTATION]. In words: PROTAC activity at VHL/EGFR Del19 mutant in human HCC827 cells assessed as EGFR degradation treated after 8 hrs under serum starvation condition at 10 to 1000 nM measured after 16 hrs by Western blotting analysis. It counts as cell-based. The following applies: dose 10-1000 nM.
Chain of von Hippel-Lindau disease tumor suppressor/Epidermal growth factor receptor (Homo sapiens), P00533+P40337 [UNDEFINED MUTATION] (P00533 whole entry, looked up, stated change not applied): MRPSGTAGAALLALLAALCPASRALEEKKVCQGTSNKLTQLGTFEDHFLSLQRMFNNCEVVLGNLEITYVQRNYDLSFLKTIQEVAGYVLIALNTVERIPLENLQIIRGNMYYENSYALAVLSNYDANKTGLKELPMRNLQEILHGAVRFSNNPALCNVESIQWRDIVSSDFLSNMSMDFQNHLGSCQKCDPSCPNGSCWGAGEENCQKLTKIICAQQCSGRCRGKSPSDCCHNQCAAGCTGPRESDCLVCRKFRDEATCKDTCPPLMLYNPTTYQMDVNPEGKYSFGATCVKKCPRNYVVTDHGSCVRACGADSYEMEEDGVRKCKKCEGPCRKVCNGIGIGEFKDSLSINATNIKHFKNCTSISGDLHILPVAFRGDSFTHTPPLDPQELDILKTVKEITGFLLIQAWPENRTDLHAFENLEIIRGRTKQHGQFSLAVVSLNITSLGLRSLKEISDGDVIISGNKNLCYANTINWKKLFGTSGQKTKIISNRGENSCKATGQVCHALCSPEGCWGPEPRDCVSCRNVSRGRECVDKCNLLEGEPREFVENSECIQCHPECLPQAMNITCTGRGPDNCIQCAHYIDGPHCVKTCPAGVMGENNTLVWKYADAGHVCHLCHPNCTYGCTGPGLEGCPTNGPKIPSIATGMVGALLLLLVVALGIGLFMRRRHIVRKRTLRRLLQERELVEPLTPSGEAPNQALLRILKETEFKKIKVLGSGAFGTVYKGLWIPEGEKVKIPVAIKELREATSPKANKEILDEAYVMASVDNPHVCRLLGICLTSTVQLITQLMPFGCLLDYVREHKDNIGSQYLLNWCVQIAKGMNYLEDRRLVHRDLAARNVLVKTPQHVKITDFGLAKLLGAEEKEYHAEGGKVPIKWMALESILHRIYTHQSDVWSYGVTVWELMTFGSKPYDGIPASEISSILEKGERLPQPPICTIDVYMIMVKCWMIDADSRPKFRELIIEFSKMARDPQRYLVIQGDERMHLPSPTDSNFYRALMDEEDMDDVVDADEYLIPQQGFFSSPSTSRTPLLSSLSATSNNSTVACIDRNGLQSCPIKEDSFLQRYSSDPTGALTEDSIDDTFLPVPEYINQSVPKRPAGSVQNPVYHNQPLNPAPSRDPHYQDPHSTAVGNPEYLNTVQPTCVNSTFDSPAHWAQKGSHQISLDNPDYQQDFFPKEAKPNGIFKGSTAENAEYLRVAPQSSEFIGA
Chain of von Hippel-Lindau disease tumor suppressor/Epidermal growth factor receptor (Homo sapiens), P00533+P40337 [UNDEFINED MUTATION] (P40337 whole entry, looked up, stated change not applied): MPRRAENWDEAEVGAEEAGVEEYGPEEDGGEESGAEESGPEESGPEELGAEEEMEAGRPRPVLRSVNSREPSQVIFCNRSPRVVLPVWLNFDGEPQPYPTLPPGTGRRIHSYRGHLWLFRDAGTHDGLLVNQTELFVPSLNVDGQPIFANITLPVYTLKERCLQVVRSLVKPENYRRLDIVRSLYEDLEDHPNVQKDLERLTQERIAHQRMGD

For test [5], the target named is T1, von Hippel-Lindau disease tumor suppressor/Epidermal growth factor receptor (Homo sapiens, UniProt P00533+P40337). The test can be described thus: PROTAC activity at VHL/wild type EGFR in human OVCAR-8 cells assessed as EGFR degradation measured after 24 hrs by Immunoblotting analysis. It counts as cell-based. In general terms: Immunoblotting shows a protein as a band on a membrane.
Target sequence in this assay (P00533 whole entry): as the sequence (P00533 whole entry, looked up, stated change not applied) above
Target sequence in this assay (P40337 whole entry): as the sequence (P40337 whole entry, looked up, stated change not applied) above

Test [6] addresses Epidermal growth factor receptor (Homo sapiens, UniProt P00533). The test can be described thus: Binding affinity to human wild type partial length EGFR (R669 to V1011 residues) expressed in bacterial expression system assessed as immobilized ligand binding by competitive binding assay.
In test [7] the target is Epidermal growth factor receptor (Homo sapiens, UniProt P00533, L858R). In words: Binding affinity to human partial length EGFR (R669 to V1011 residues) L858R mutant expressed in bacterial expression system assessed as immobilized ligand binding by competitive binding assay.
Test [8] deals with Protein cereblon/Epidermal growth factor receptor (Homo sapiens), P00533+Q96SW2 [UNDEFINED MUTATION]. The test can be described thus: PROTAC activity at CRBN/EGFR Del19 mutant in human HCC827 cells assessed as EGFR degradation treated after 8 hrs under serum starvation condition at 100 nM measured after 16 hrs by Western blotting analysis. It counts as cell-based.
Chain of Protein cereblon/Epidermal growth factor receptor (Homo sapiens), P00533+Q96SW2 [UNDEFINED MUTATION] (P00533 whole entry, looked up, stated change not applied): as the sequence (P00533 whole entry, looked up, stated change not applied) above
Chain of Protein cereblon/Epidermal growth factor receptor (Homo sapiens), P00533+Q96SW2 [UNDEFINED MUTATION] (Q96SW2 whole entry, looked up, stated change not applied): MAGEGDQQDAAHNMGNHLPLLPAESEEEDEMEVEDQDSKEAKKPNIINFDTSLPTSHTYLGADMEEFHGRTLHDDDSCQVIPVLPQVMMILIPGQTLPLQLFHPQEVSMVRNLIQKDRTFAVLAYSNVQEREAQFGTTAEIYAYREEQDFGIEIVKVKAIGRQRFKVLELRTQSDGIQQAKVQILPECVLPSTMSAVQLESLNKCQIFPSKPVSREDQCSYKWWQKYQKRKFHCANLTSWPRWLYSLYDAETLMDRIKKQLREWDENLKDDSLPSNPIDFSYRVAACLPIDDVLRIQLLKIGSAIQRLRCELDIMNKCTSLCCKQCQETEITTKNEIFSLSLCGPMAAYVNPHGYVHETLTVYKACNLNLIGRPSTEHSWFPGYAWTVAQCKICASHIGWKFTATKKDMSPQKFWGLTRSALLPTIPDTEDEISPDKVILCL
Test [9] shares this test system. The test can be described thus: PROTAC activity at CRBN/EGFR Del19 mutant in human HCC827 cells assessed as EGFR degradation treated after 8 hrs under serum starvation condition at 1 uM measured after 16 hrs by Western blotting analysis. It counts as cell-based.
Test [10] has as its target T1, von Hippel-Lindau disease tumor suppressor/Epidermal growth factor receptor. In words: PROTAC activity at VHL/EGFR Del19 mutant in human HCC827 cells. It counts as cell-based.

Take `COc1cc2ncnc(Nc3ccc(F)c(Cl)c3)c2cc1OCCCN1CCN(C(=O)CCOCCOCCOCCOCCNc2ccc3c(c2)C(=O)N(C2CCC(=O)NC2=O)C3=O)CC1` (stereo unspecified): the GI50 in test [1] was 930 nM.

`COc1cc2ncnc(Nc3ccc(F)c(Cl)c3)c2cc1OCCCN1CCN(C(=O)CCCCCCCCCCNC(=O)C[C@H](NC(=O)[C@@H]2C[C@@H](O)CN2C(=O)[C@@H](c2cc(C)no2)C(C)C)c2ccc(-c3scnc3C)cc2)CC1`: the GI50 in test [1] worked out at 250 nM. Moreover, the result in test [2] and in test [3] was Active. `COc1cc2ncnc(Nc3ccc(F)c(Cl)c3)c2cc1OCCCN1CCN(C(=O)CCCCCCCCCC(=O)N[C@H](C(=O)N2C[C@H](O)C[C@H]2C(=O)NCc2ccc(-c3scnc3C)cc2)C(C)(C)C)CC1`: the GI50 in test [1] was determined as 230 nM. Besides, the outcome in test [2] and in [3] was Active. Take `COc1cc2ncnc(Nc3ccc(F)c(Cl)c3)c2cc1OCCCN1CCN(C(=O)CCNC(=O)C[C@H](NC(=O)[C@@H]2C[C@@H](O)CN2C(=O)[C@@H](c2cc(C)no2)C(C)C)c2ccc(-c3scnc3C)cc2)CC1`: in test [4], the outcome was Active. Further, the GI50 in test [1] is 780 nM. As for `Cc1ncsc1-c1ccc(CNC(=O)[C@@H]2C[C@@H](O)CN2C(=O)[C@@H](NC(=O)COCCOCCOc2ccc(-c3ccc4ncnc(Nc5ccc(OCc6cccc(F)c6)c(Cl)c5)c4c3)cc2)C(C)(C)C)cc1`, the DC50 in test [5] was 39 nM.

`COc1cc2ncnc(Nc3ccc(F)c(Cl)c3)c2cc1OCCCN1CCN(C(=O)CCCCCCCCNC(=O)C[C@H](NC(=O)[C@@H]2C[C@@H](O)CN2C(=O)[C@@H](c2cc(C)no2)C(C)C)c2ccc(-c3scnc3C)cc2)CC1`: the result in test [4] was Active. Besides, in test [1], the GI50 came out at 460 nM. In the same order, the values of `COc1cc2ncnc(Nc3ccc(F)c(Cl)c3)c2cc1OCCCN1CCN(C(=O)CCCCCCCCCNC(=O)C[C@H](NC(=O)[C@@H]2C[C@@H](O)CN2C(=O)[C@@H](c2cc(C)no2)C(C)C)c2ccc(-c3scnc3C)cc2)CC1` are “Active” and 590 nM. Regarding `COc1cc2ncnc(Nc3ccc(F)c(Cl)c3)c2cc1OCCCN1CCN(C(=O)CCOCCOCCOCCOCCOCCNc2ccc3c(c2)C(=O)N(C2CCC(=O)N(C)C2=O)C3=O)CC1` (stereo unspecified), the values for the equilibrium dissociation constant (Kd) in [6] and in test [7] were 6.4 nM and 2.9 nM, respectively. Consider `COc1cc2ncnc(Nc3ccc(F)c(Cl)c3)c2cc1OCCCN1CCN(CCC(=O)NCCCCCCCCNc2ccc3c(c2)C(=O)N(C2CCC(=O)NC2=O)C3=O)CC1` (stereo unspecified), for which the result in test [8] and in test [9] was Active. Regarding `COc1cc2ncnc(Nc3ccc(F)c(Cl)c3)c2cc1OCCCN1CCN(C(=O)CCNC(=O)C[C@H](NC(=O)[C@@H]2C[C@@H](O)CN2C(=O)[C@@H](NC(=O)C2(F)CC2)C(C)(C)C)c2ccc(-c3scnc3C)cc2)CC1`, the GI50 in test [1] was 1020 nM. For the molecule `COc1cc2ncnc(Nc3ccc(F)c(Cl)c3)c2cc1OCCCN1CCN(C(=O)CCCCNC(=O)C[C@H](NC(=O)[C@@H]2C[C@@H](O)CN2C(=O)[C@@H](c2cc(C)no2)C(C)C)c2ccc(-c3scnc3C)cc2)CC1`, the GI50 in [1] amounted to 770 nM. For the molecule `COc1cc2ncnc(Nc3ccc(F)c(Cl)c3)c2cc1OCCCN1CCN(C(=O)CCOCCOCCOCCOCCOCCNc2ccc3c(c2)C(=O)N(C2CCC(=O)NC2=O)C3=O)CC1` (stereo unspecified), in test [1], the GI50 is 870 nM. Moreover, the result in test [2] and in test [3] was Active. Turning to `COc1cc2ncnc(Nc3ccc(F)c(Cl)c3)c2cc1OCCCN1CCN(C(=O)CCCCCNC(=O)C[C@H](NC(=O)[C@@H]2C[C@@H](O)CN2C(=O)[C@@H](c2cc(C)no2)C(C)C)c2ccc(-c3scnc3C)cc2)CC1`, in [4], the result was Active. Also, the GI50 in test [1] was 790 nM. As for `COc1cc2ncnc(Nc3ccc(F)c(Cl)c3)c2cc1OCCCN1CCN(C(=O)CCCNC(=O)C[C@H](NC(=O)[C@@H]2C[C@@H](O)CN2C(=O)[C@@H](c2cc(C)no2)C(C)C)c2ccc(-c3scnc3C)cc2)CC1`, the result in test [4] was Active. For the same molecule, in test [1], the GI50 was found to be 880 nM. In the same order, the values of `COc1cc2ncnc(Nc3ccc(F)c(Cl)c3)c2cc1OCCCN1CCN(C(=O)CNC(=O)C[C@H](NC(=O)[C@@H]2C[C@@H](O)CN2C(=O)[C@@H](c2cc(C)no2)C(C)C)c2ccc(-c3scnc3C)cc2)CC1` are “Active” and 710 nM. Consider `COc1cc2ncnc(Nc3ccc(F)c(Cl)c3)c2cc1OCCCN1CCN(C(=O)C[C@H](NC(=O)[C@@H]2C[C@@H](O)CN2C(=O)[C@@H](c2cc(C)no2)C(C)C)c2ccc(-c3scnc3C)cc2)CC1`, for which the GI50 in [1] is 730 nM. Turning to `COc1cc2ncnc(Nc3ccc(F)c(Cl)c3)c2cc1OCCCN1CCN(C(=O)CCCCCCCNC(=O)C[C@H](NC(=O)[C@@H]2C[C@@H](O)CN2C(=O)[C@@H](c2cc(C)no2)C(C)C)c2ccc(-c3scnc3C)cc2)CC1`, the result in test [4] was Active. Moreover, the GI50 in test [1] turned out to be 610 nM. On to `COc1cc2ncnc(Nc3ccc(F)c(Cl)c3)c2cc1OCCCN1CCN(CCC(=O)NCCCCCCCCOc2cccc3c2C(=O)N(C2CCC(=O)NC2=O)C3)CC1` (stereo unspecified), for which the GI50 in [1] came to 660 nM. Besides, the outcome in test [2] and in test [3] was Active.

Take `Cc1ncsc1-c1ccc(CNC(=O)[C@@H]2C[C@@H](O)CN2C(=O)[C@@H](NC(=O)CCCCCCCCCCn2cc(COc3cc4ncnc(Nc5ccc(F)c(Cl)c5)c4cc3NC(=O)/C=C/CN3CCCCC3)nn2)C(C)(C)C)cc1`: the DC50 in test [10] turned out to be 3.6 nM.
